Test results: patent US11447489B2, “Dihydropyrimidinylthiazole for the treatment and prophylaxis of hepatitis B virus infection” (priority 2017, dated 2022)

System: HBsAg
Experiment: HepG2.2.15 cells primary screen assay: HBsAg assay (CLIA of secreted HBsAg)
Type: cell-based, HBV
Settings: Hepatitis B virus
Description: Example 23: HepG2.2.15 Cells Primary Screen Assay
HepG2.2.15 cells (Acs et al. Proc Natl Acad Sci USA, 84, (1987), 4641-4), a constitutively HBV-expressing cell line were cultured in DMEM+Glutamax-I medium (Invitrogen, Carlsbad, Calif., USA), supplemented with 10% fetal bovine serum (Invitrogen) and G418 (Invitrogen) at a final concentration of 200 mg/L and maintained in 5% CO2 at 37° C.
HepG2.2.15 cells were seeded in duplicate into white, 96-well plates at 1.5×10^4 cells/well. The cells were treated with a three-fold serial dilution series of the compounds in DMSO. The final DMSO concentration in all wells was 1% and DMSO was used as no drug control.
The HBsAg chemiluminescence immunoassay (CLIA) kit (Autobio Diagnostics Co., Zhengzhou, China, Catalog number: CL0310-2) was used to measure the levels of secreted HBV antigens semi-quantitatively. For the detection 50 μL/well culture supernatant was used and HBsAg was quantified using HBsAg chemiluminescence immunoassay (CLIA) kit (Autobio Diagnostics Co., Zhengzhou, China, Catalog number: CL0310-2), 50 μL of the supernatant was transferred to the CLIA assay plate and 50 μL of enzyme conjugate reagent was added into each well. The plates were sealed and gently agitated for 1 hour at room temperature. The supernatant-enzyme-mixture was discarded and wells were washed 6 times with 300 μL of PBS. The residual liquid was removed by plating the CLIA plate […] on absorbent tissue paper. 25 μL of substrates A and B were added to each well. Luminance was measured using a luminometer (Mithras LB 940 Multimode Microplate Reader) after 10 minutes incubation. Dose-response curves were generated and the IC50 value was extrapolated by using the E-WorkBook Suite (ID Business Solutions Ltd., Guildford, UK). The IC50 was defined as the compound concentration (or conditioned media log dilution) at which HBsAg secretion was reduced by 50% compared to the no drug control.
The compounds of the present invention were tested for their capacity to inhibit HBsAg as described herein.

SMILES | IC50 [nM]
COC(=O)C1=C(CN2CCN(CCCCCOc3cc4c(cc3OC)-c3cc(=O)c(C(=O)O)cn3C(C(C)(C)C)C4)CC2)NC(c2nccs2)=N[C@H]1c1ccc(F)cc1Cl (stereo partly drawn) [Example 2, 6-tert-butyl-9-[5-[4-[[(4R)-4-(2-chloro-4-fluoro-phenyl)-5-methoxycarbonyl-2-thiazol-2-yl-1,4-dihydropyrimidin-6-yl]methyl]piperazin-1-yl]pentoxy]-10-methoxy-2-oxo-6,7-dihydrobenzo[a]quinolizine-3-carboxylic Acid] | 88
COC(=O)C1=C(CN2CCN(CCCCCCOc3cc4c(cc3OC)-c3cc(=O)c(C(=O)O)cn3C(C(C)(C)C)C4)CC2C(=O)O)NC(c2nccs2)=N[C@H]1c1ccc(F)cc1Cl (stereo partly drawn) [Example 6, 6-tert-butyl-9-[6-[3-carboxy-4-[[(4R)-4-(2-chloro-4-fluoro-phenyl)-5-methoxycarbonyl-2-thiazol-2-yl-1,4-dihydropyrimidin-6-yl]methyl]piperazin-1-yl]hexoxy]-10-methoxy-2-oxo-6,7-dihydrobenzo[a]quinolizine-3-carboxylic Acid] | 262
COC(=O)C1=C(CN2CCN3C(=O)N(CCCCCCOc4cc5c(cc4OC)-c4cc(=O)c(C(=O)O)cn4C(C(C)(C)C)C5)CC3C2)NC(c2nccs2)=N[C@H]1c1ccc(F)cc1Cl (stereo partly drawn) [Example 8, 6-tert-butyl-9-[6-[7-[[(4R)-4-(2-chloro-4-fluoro-phenyl)-5-methoxycarbonyl-2-thiazol-2-yl-1,4-dihydropyrimidin-6-yl]methyl]-3-oxo-5,6,8,8a-tetrahydro-1H-imidazo[1,5-a]pyrazin-2-yl]hexoxy]-10-methoxy-2-oxo-6,7-dihydrobenzo[a]quinolizine-3-carboxylic Acid] | 48
COC(=O)C1=C(CN2CCN3C(=O)N(CC(C)(C)CC(=O)NCCCCCCOc4cc5c(cc4OC)-c4cc(=O)c(C(=O)O)cn4C(C(C)(C)C)C5)C[C@@H]3C2)NC(c2nccs2)=N[C@H]1c1ccc(F)cc1Cl (stereo partly drawn) [Example 16, 9-[6-[[4-[(8aS)-7-[[(4R)-4-(2-chloro-4-fluoro-phenyl)-5-methoxycarbonyl-2-thiazol-2-yl-1,4-dihydropyrimidin-6-yl]methyl]-3-oxo-5,6,8,8a-tetrahydro-1H-imidazo[1,5-a]pyrazin-2-yl]-3,3-dimethyl-butanoyl]amino]hexoxy]-6-tert-butyl-10-methoxy-2-oxo-6,7-dihydrobenzo[a]quinolizine-3-carboxylic Acid] | 107
COC(=O)C1=C(CN2CCN3C(=O)N(CC(C)(C)CC(=O)NCCCCCCOc4cc(N5CCc6nc(-c7ncccn7)ncc6C5C)cc(F)c4F)C[C@@H]3C2)NC(c2nccs2)=N[C@H]1c1ccc(F)cc1Cl (stereo partly drawn) [Example 17, methyl (4R)-6-[[(8aS)-2-[4-[6-[2,3-difluoro-5-[5-methyl-2-pyrimidin-2-yl-7,8-dihydro-5H-pyrido[4,3-d]pyrimidin-6-yl]phenoxy]hexylamino]-2,2-dimethyl-4-oxo-butyl]-3-oxo-5,6,8,8a-tetrahydro-1H-imidazo[1,5-a]pyrazin-7-yl]methyl]-4-(2-chloro-4-fluoro-phenyl)-2-thiazol-2-yl-1,4-dihydropyrimidine-5-carboxylate] | 1190
COC(=O)C1=C(CN2CCN(CCCOc3cc4c(cc3OC)-c3cc(=O)c(C(=O)O)cn3C(C(C)(C)C)C4)CC2)NC(c2nccs2)=N[C@H]1c1ccc(F)cc1Cl (stereo partly drawn) [Example 4, 6-tert-butyl-9-[3-[4-[[(4R)-4-(2-chloro-4-fluoro-phenyl)-5-methoxycarbonyl-2-thiazol-2-yl-1,4-dihydropyrimidin-6-yl]methyl]piperazin-1-yl]propoxy]-10-methoxy-2-oxo-6,7-dihydrobenzo[a]quinolizine-3-carboxylic Acid] | 182
COC(=O)C1=C(COc2cc(N3CCc4nc(-c5ncccn5)ncc4C3C)cc(F)c2F)NC(c2nccs2)=N[C@H]1c1ccc(F)cc1Cl (stereo partly drawn) [Example 20, methyl (4R)-4-(2-chloro-4-fluoro-phenyl)-6-[[2,3-difluoro-5-(5-methyl-2-pyrimidin-2-yl-7,8-dihydro-5H-pyrido[4,3-d]pyrimidin-6-yl)phenoxy]methyl]-2-thiazol-2-yl-1,4-dihydropyrimidine-5-carboxylate] | 824
COC(=O)C1=C(CN2CCN(CCCCOc3cc4c(cc3OC)-c3cc(=O)c(C(=O)O)cn3C(C(C)(C)C)C4)CC2)NC(c2nccs2)=N[C@H]1c1ccc(F)cc1Cl (stereo partly drawn) [Example 3, 6-tert-butyl-9-[4-[4-[[(4R)-4-(2-chloro-4-fluoro-phenyl)-5-methoxycarbonyl-2-thiazol-2-yl-1,4-dihydropyrimidin-6-yl]methyl]piperazin-1-yl]butoxy]-10-methoxy-2-oxo-6,7-dihydrobenzo[a]quinolizine-3-carboxylic Acid] | 45
COC(=O)C1=C(CN2CCN(CCCCCCOc3cc4c(cc3OC)-c3cc(=O)c(C(=O)O)cn3C(C(C)(C)C)C4)C(C(=O)O)C2)NC(c2nccs2)=N[C@H]1c1ccc(F)cc1Cl (stereo partly drawn) [Example 7, 6-tert-butyl-9-[6-[2-carboxy-4-[[(4R)-4-(2-chloro-4-fluoro-phenyl)-5-methoxycarbonyl-2-thiazol-2-yl-1,4-dihydropyrimidin-6-yl]methyl]piperazin-1-yl]hexoxy]-10-methoxy-2-oxo-6,7-dihydrobenzo[a]quinolizine-3-carboxylic Acid] | 190
COC(=O)C1=C(CN2CCN(CCC(CCCOc3cc4c(cc3OC)-c3cc(=O)c(C(=O)O)cn3C(C(C)(C)C)C4)C(=O)O)CC2)NC(c2nccs2)=N[C@H]1c1ccc(F)cc1Cl (stereo partly drawn) [Example 12, 6-tert-butyl-9-[4-carboxy-6-[4-[[(4R)-4-(2-chloro-4-fluoro-phenyl)-5-methoxycarbonyl-2-thiazol-2-yl-1,4-dihydropyrimidin-6-yl]methyl]piperazin-1-yl]hexoxy]-10-methoxy-2-oxo-6,7-dihydrobenzo[a]quinolizine-3-carboxylic Acid] | 740
COC(=O)C1=C(CN2CCN(CCCOc3cc4c(cc3OC)-c3cc(=O)c(C(=O)O)cn3C(C(C)(C)C)C4)C(C(=O)O)C2)NC(c2nccs2)=N[C@H]1c1ccc(F)cc1Cl (stereo partly drawn) [Example 5, 6-tert-butyl-9-[3-[2-carboxy-4-[[(4R)-4-(2-chloro-4-fluoro-phenyl)-5-methoxycarbonyl-2-thiazol-2-yl-1,4-dihydropyrimidin-6-yl]methyl]piperazin-1-yl]propoxy]-10-methoxy-2-oxo-6,7-dihydrobenzo[a]quinolizine-3-carboxylic Acid] | 3480
COC(=O)C1=C(CN2CCN(c3cc(F)cc(N4CCc5nc(-c6ncccn6)ncc5C4C)n3)C(C(=O)O)C2)NC(c2nccs2)=N[C@H]1c1ccc(F)cc1Cl (stereo partly drawn) [Example 22, 4-[[(4R)-4-(2-chloro-4-fluoro-phenyl)-5-methoxycarbonyl-2-thiazol-2-yl-1,4-dihydropyrimidin-6-yl]methyl]-1-[4-fluoro-6-[5-methyl-2-pyrimidin-2-yl-7,8-dihydro-5H-pyrido[4,3-d]pyrimidin-6-yl]-2-pyridyl]piperazine-2-carboxylic Acid] | 618
COC(=O)C1=C(CN(C)CCCCCCOc2cc3c(cc2OC)-c2cc(=O)c(C(=O)O)cn2C(C(C)(C)C)C3)NC(c2nccs2)=N[C@H]1c1ccc(F)cc1Cl (stereo partly drawn) [Example 9, 6-tert-butyl-9-[6-[[(4R)-4-(2-chloro-4-fluoro-phenyl)-5-methoxycarbonyl-2-thiazol-2-yl-1,4-dihydropyrimidin-6-yl]methyl-methyl-amino]hexoxy]-10-methoxy-2-oxo-6,7-dihydrobenzo[a]quinolizine-3-carboxylic Acid] | 113
COC(=O)C1=C(CN2CCOC[C@H]2C(=O)NCCOCCOCCOc2cc3c(cc2OC)-c2cc(=O)c(C(=O)O)cn2C(C(C)(C)C)C3)NC(c2nccs2)=N[C@H]1c1ccc(F)cc1Cl (stereo partly drawn) [Example 10, 6-tert-butyl-9-[2-[2-[2-[[(3S)-4-[[(4R)-4-(2-chloro-4-fluoro-phenyl)-5-methoxycarbonyl-2-thiazol-2-yl-1,4-dihydropyrimidin-6-yl]methyl]morpholine-3-carbonyl]amino]ethoxy]ethoxy]ethoxy]-10-methoxy-2-oxo-6,7-dihydrobenzo[a]quinolizine-3-carboxylic Acid] | 569
COC(=O)C1=C(CN2CCOC[C@H]2CN(C)CCCCCCOc2cc(N3CCc4nc(-c5ncccn5)ncc4C3C)cc(F)c2F)NC(c2nccs2)=N[C@H]1c1ccc(F)cc1Cl (stereo partly drawn) [Example 19, methyl (4R)-4-(2-chloro-4-fluoro-phenyl)-6-[[(3R)-3-[[6-[2,3-difluoro-5-(5-methyl-2-pyrimidin-2-yl-7,8-dihydro-5H-pyrido[4,3-d]pyrimidin-6-yl)phenoxy]hexyl-methyl-amino]methyl]morpholin-4-yl]methyl]-2-thiazol-2-yl-1,4-dihydropyrimidine-5-carboxylate] | 724
